This test deals with MDA-MB-468 breast. Kind of test: inhibition of tumour cell growth, NCI panel, 48 h.

Where “and” joins values, the source holds several entries; their conditions need not be identical. Identical values can stand only once.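 Exposure lasted 48 hours, with cells grown in 96-well plates and compounds tested at five concentrations. GI50: concentration for 50% inhibition of growth. TGI marks complete inhibition of growth.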

With `CC(CN)[C@@H]1CC[C@]2(CO)CC[C@]3(C)[C@H](CC[C@@H]4[C@@]5(C)CCC(N)C(C)(C)[C@@H]5CC[C@]43C)[C@@H]12` (some centres not stated), the GI50 was 1590 nM and the TGI came out at 3250 nM.

On to `O=c1cc(-c2cccc(OCc3ccccc3)c2)[nH]c2cc3c(cc12)OCO3`, for which the GI50 was 9590 nM and the TGI was more than 100000 nM.

As for `COc1ccc(C2CC(=O)c3c(O)c(OC)c(OC)c(OC)c3O2)cc1O` (configuration not stated), the GI50 was 1510 nM and the TGI was more than 100000 nM.

In the case of `CNC(=O)CN1CCC(Oc2cc3c(Nc4cccc(Cl)c4F)ncnc3cc2OC)CC1`, the GI50 is < 10 nM and 4.03 nM.

As to `COc1cnc2c(c1)C(=O)c1c-2n(CCCNC(C)C)c(=O)c2cc([N+](=O)[O-])ccc12`, the GI50 is 20.6 nM and the TGI was determined as 60.3 nM.

Consider `C/C(=C\c1ccn(-c2ccc(N)cc2F)n1)[C@@H]1C[C@@H]2O[C@]2(C)CCC[C@H](C)[C@H](O)[C@@H](C)C(=O)C(C)(C)[C@@H](O)CC(=O)O1`, for which the GI50 was 26.3 nM and the TGI stood at 300 nM.

As for `COc1cc(C)c(NC(=O)CN(C)C)cc1Nc1nc(Nc2cccc(F)c2C(N)=O)c2cc[nH]c2n1`, the GI50 was 263 nM and the TGI is 1210 nM.

For the compound `Nc1c2ccccc2nc2ccccc12` (tested in a mixture with another compound), the GI50 is 1070 nM and the TGI worked out at 3210 nM.

On to `Cc1nn(C)c2cc(N(C)c3ccnc(Nc4cccc(S(N)(=O)=O)c4)n3)ccc12`, for which the GI50 was 4190 nM and the TGI is 13700 nM.

In the case of `Cc1nc2sc(C(=O)Nc3cccc(Br)c3)c(N)c2cc1C(O)c1ccccc1` (configuration not stated), the GI50 was 380 nM and the TGI was 10200 nM.

For `CC#CC(=O)N1CC[C@@H](n2c(=O)n(-c3ccc(Oc4ccccc4)cc3)c3c(N)ncnc32)C1`, the GI50 was 10500 nM and the TGI amounted to 60200 nM.

`C[C@@H]1OCC2(CCN(c3cnc(Sc4ccnc(N)c4Cl)c(N)n3)CC2)[C@@H]1N`: the GI50 was 14800 nM and the TGI is more than 100000 nM.

Consider `Cc1ccc(C2=NN(c3ccc(S(N)(=O)=O)cc3)C(c3cn(-c4ccccc4)nc3-c3ccccc3)C2)cc1` (configuration not stated), for which the GI50 is 24300 nM and the TGI is more than 100000 nM.

Regarding `C=C(C)[C@@H]1CC[C@]2(C(N)=O)CC[C@]3(C)[C@H](CC[C@@H]4[C@@]5(C)C/C(=C/c6cccnc6)[C@H](O)C(C)(C)[C@@H]5CC[C@]43C)[C@@H]12`, the GI50 is 4050 nM and the TGI was more than 100000 nM.

In the case of `Clc1ccc2c(NCCNc3nc(N4CCCC4)nc4ccccc34)ccnc2c1`, the GI50 was 1200 nM and the TGI was determined as 3430 nM.

For the compound `Fc1cccc(-c2[nH]nc3nc(Nc4cccnc4)sc23)c1`, the GI50 was 360 nM and the TGI was 3000 nM.

Turning to `CCOCCOC[C@H]1CCCN(c2ccnc3sc(C(N)=O)c(N)c23)C1`, the GI50 is 3440 nM and the TGI was more than 100000 nM.

Consider `O=S(=O)(Nc1ccccn1)c1ccc(N=Nc2ccc(O)c3ncccc23)cc1`, for which the GI50 is 2230 nM and the TGI worked out at 8440 nM.

In the case of `COc1cc(N2CCC(N3CCN(C)CC3)CC2)ccc1Nc1ncc(Cl)c(Nc2ccccc2S(=O)(=O)C(C)C)n1`, the GI50 was 483 nM and the TGI was found to be 1780 nM.

Turning to `Oc1c(CN2CCN(c3ccccc3F)CC2)cc(Br)c2cccnc12`, the GI50 was 673 nM and the TGI was determined as 6840 nM.

`C=CCSSc1ncnc2c1ncn2C1OC(CO)C(O)C1O` (configuration not stated): the GI50 was 217 nM and the TGI is 4460 nM.

In the case of `Oc1c(I)cc(I)cc1CN(Cc1ccccn1)Cc1ccccn1`, the GI50 was 1310 nM and the TGI came out at 7280 nM.

As for `CCN(CC)CC[n+]1cc2cc(OC)c(OC)cc2c2ccc3cc4c(cc3c21)OCO4`, the GI50 is 241 nM and the TGI was determined as 1090 nM.

In the case of `CN1CCN(CC(=O)N2c3cccc4cccc(c34)N(C(=O)CN3CCN(C)CC3)C2c2cn(-c3ccccc3)nc2-c2cccc([N+](=O)[O-])c2)CC1`, the GI50 is 1610 nM and the TGI was determined as 3060 nM.

With `N#Cc1nn(-c2cc(=O)[nH]c3ccc(Br)cc23)c(N)c1C#N`, the GI50 is more than 100000 nM and the TGI was more than 100000 nM.

Turning to `O=C(O)c1ccccc1Nc1ccc2nnc(-c3ccncc3)n2n1`, the GI50 is 1960 nM and the TGI worked out at 4590 nM.

As for `O=C(NCCCCCCNC(=O)OCc1ccc2c(Cl)cc(Cl)c(O)c2n1)OCc1ccc2c(Cl)cc(Cl)c(O)c2n1`, the GI50 is 590 nM and the TGI was 2140 nM.

For `CCN1CCN(c2ccc(Nc3ncc4ccc5ncn(C(C)C)c5c4n3)nc2)CC1`, the GI50 is 177 nM and the TGI is 444 nM.

As to `Cc1cc2nc(C(Cl)Cl)nc(-c3ccccc3)n2n1`, the GI50 was 1810 nM and the TGI was found to be 4450 nM.

For `Oc1ccc(-c2nnc(SCc3ccc(O)c4ncccc34)n2-c2ccccc2)cc1`, the GI50 is 421 nM and the TGI turned out to be 2830 nM.

Consider `O=[N+]([O-])c1cc2c(c([N+](=O)[O-])c1)Nc1ccccc1O2`, for which the GI50 was 2140 nM and the TGI turned out to be 9840 nM.

As to `C=C1C(=O)O[C@H]2[C@H]1CC/C(COC(=O)NCc1cc(OC)cc(OC)c1)=C\CC[C@@]1(C)O[C@@H]21`, the GI50 is 580 nM and the TGI stood at 2330 nM.

As for `COc1ccc2nc3ccccc3c(NCc3ccc(C)cc3)c2c1`, the GI50 is 1810 nM and the TGI is 3920 nM.

Take `COc1ccc2nc(-c3cc4c([nH]c5ccccc54)c(-c4ccc(F)c(F)c4)n3)[nH]c2c1`: the GI50 is 1700 nM and the TGI worked out at 3920 nM.

These data come from PubChem BioAssay (NCI).
